Among the data in US10183949B2, “Pyrimidinone derivative having autotaxin-inhibitory activity” (The University of Tokyo, priority 2014, dated 2019) are IC50 values, retold here.

The target of this test is T1, Human autotaxin enzyme (Homo sapiens, UniProt Q13822).
T1 construct: purchased R&D System
Briefly: Evaluation of autotaxin inhibitor, 18:0 Lyso PC / choline assay (Test Example 2). The test is classed as biochemical. Conditions: human autotaxin enzyme, 18:0 Lyso PC substrate, choline assay, room temperature 2 hours; read-out: Inhibitor activity (IC50). On the procedure: Solution B containing 100 mM Tris-HCl buffer (pH7.5), 150 mM NaCl, 5 mM MgCl2, and 0.05% Triton X-100 was prepared. Human autotaxin enzyme (purchased from R&D System) was diluted with Solution B, and 2.5 μl of which was added to a solution of test compound in DMSO. Furthermore, 2.5 μl of 200 μM 18:0 Lyso PC (purchased from Avanti Polar Lipids) in Solution B was added and allowed to react at room temperature for 2 hours. After completion of the reaction, 15 μl of the coline assay reagent. (100 mM Tris-HCl buffer (pH7.5), 5 mM. MgCl2, 77 μg/ml coline oxidase, 10 μg/ml peroxydase, 25μM 10-acetyl-3,7-dihydroxyphenoxazine, and excess autotaxin inhibitor) was added and allowed to react at room temperature for 20 minutes. The fluorescent dye Resorufin, which was produced by the reaction, was detected. The fluorescence was detected using ViewLux
(PerkinElmer, Inc.) with a excitation wavelength of 531 nm and a fluorescence wavelength of 598 nm.
The percent inhibition of the test compound was calculated by assuming the sample with no test compound as 0% inhibition and the sample with no enzyme as 100% inhibition, and the percent inhibitions at different concentrations of the test compound were plotted to obtain a concentration-dependent curve.
What is called IC50 is the point on the concentration scale where inhibition reaches its midpoint. In the case of `CCCCCc1nc(-c2ccc(Cl)cc2)cc(=O)n1CC(=O)N1[C@H](C)COC[C@@H]1C` [Compound I-0095], the IC50 was in the range of 10 to 100 nM.

In the case of `CCCCCc1nc(-c2ccc(Cl)cc2)cc(=O)n1CC(=O)NCCC(C)O` (centres unmarked) [Compound I-0096], the IC50 fell in the range of 100 to 1000 nM. Consider `CCCCCc1nc(-c2ccc(Cl)cc2)cc(=O)n1CC(=O)N[C@@H]1CCN(C(C)=O)C1` [Compound I-0097], for which the 50% inhibitory concentration (IC50) fell in the range of 100 to 1000 nM.

`CCCCCc1nc(-c2ccc(Cl)cc2)cc(=O)n1CC(=O)NCC(C)(C)O` [Compound I-0098]: the half-inhibitory concentration (IC50) fell in the range of 10 to 100 nM. To `CCCCCc1nc(-c2ccc(Cl)cc2)cc(=O)n1CC(=O)Nc1cc(C2CC2)no1` [Compound I-0099] belongs at least 1000 nM; to `CCCCCc1nc(-c2ccc(Cl)cc2)cc(=O)n1CC(=O)N1CCOC(c2ccccc2)C1` (centres unmarked) [Compound I-0100], 100 to 1000 nM. To `CCCCCc1nc(-c2ccc(Cl)cc2)cc(=O)n1CC(=O)N[C@@H](CCc1ccccc1)C(=O)O` [Compound I-0101] belongs 10 to 100 nM. In the case of `CCCCCc1nc(-c2ccc(Cl)cc2)cc(=O)n1CC(=O)NCCCc1ccccc1` [Compound I-0102], the IC50 lay in the range of 100 to 1000 nM. The value for `CCCCCc1nc(-c2ccc(Cl)cc2)cc(=O)n1CC(=O)NCCc1ccccc1` [Compound I-0103] was 10 to 100 nM; that for `CCCCCc1nc(-c2ccc(Cl)cc2)cc(=O)n1CC(=O)NC1CN2CCC1CC2` (centres unmarked) [Compound I-0104] was 100 to 1000 nM. In the case of `N#CCCCNc1nc(-c2ccc(C#N)cc2)cc(=O)n1Cc1ccccc1` [Compound I-0105], the IC50 was 100 to 1000 nM. To `N#CCNc1nc(-c2ccc(C#N)cc2)cc(=O)n1Cc1ccccc1` [Compound I-0106] belongs at least 1000 nM; to `COc1ccc(Cn2c(-c3ccc(Cl)cc3)cc(=O)n(CC(=O)NC(Cc3ccccc3)C(=O)O)c2=O)cc1` (centres unmarked) [Compound I-0107], at least 1000 nM.

For the molecule `Cn1c(=O)cc(-c2ccc(Cl)cc2)n(CCCC#N)c1=N` [Compound I-0108], the IC50 was at least 1000 nM. The value for `COC(=O)Cn1c(CCCC(F)(F)F)nc(-c2ccc(Cl)cc2)cc1=O` [Compound I-0109] was 10 to 100 nM; that for `O=C(O)Cn1c(CCCC(F)(F)F)nc(-c2ccc(Cl)cc2)cc1=O` [Compound I-0110] was at least 1000 nM.

As for `COC(=O)c1cccc(Cn2c(CCCC(F)(F)F)nc(-c3ccc(Cl)cc3)cc2=O)c1` [Compound I-0111], the IC50 is 10 to 100 nM.

On to `O=C(O)c1cccc(Cn2c(CCCC(F)(F)F)nc(-c3ccc(Cl)cc3)cc2=O)c1` [Compound I-0112], for which the IC50 is 10 to 100 nM. The value for `CCCCCc1nc(-c2ccc(Cl)cc2)cc(=O)n1CC(=O)N1CCC(C(=O)OC)CC1` [Compound I-0113] was 10 to 100 nM; that for `CCCCCc1nc(-c2ccc(Cl)cc2)cc(=O)n1CC(=O)NC(C)(C)C(=O)OC` [Compound I-0114] was 10 to 100 nM. Consider `N#CCCCn1c(-c2ccc(Cl)cc2)cc(=O)n(CC(=O)NC(Cc2ccccc2)C(=O)O)c1=O` (centres unmarked) [Compound I-0115], for which the IC50 is at least 1000 nM. To `N#CCCCOc1nc(-c2ccc(Cl)cc2)cc(=O)n1CC(=O)NC(Cc1ccccc1)C(=O)O` (centres unmarked) [Compound I-0116] belongs 10 to 100 nM; to `O=C(Cn1c(CCCC(F)(F)F)nc(-c2ccc(Cl)cc2)cc1=O)N(CCO)CCO` [Compound I-0117], 10 to 100 nM; to `NC(=O)C1CCN(C(=O)Cn2c(CCCC(F)(F)F)nc(-c3ccc(Cl)cc3)cc2=O)CC1` [Compound I-0118], 10 to 100 nM. The value for `CC(O)CNC(=O)Cn1c(CCCC(F)(F)F)nc(-c2ccc(Cl)cc2)cc1=O` (centres unmarked) [Compound I-0119] was 10 to 100 nM; that for `O=C(Cn1c(CCCC(F)(F)F)nc(-c2ccc(Cl)cc2)cc1=O)NCc1cc(=O)[nH]o1` [Compound I-0120] was below 10 nM; that for `O=C(Cn1c(CCCC(F)(F)F)nc(-c2ccc(Cl)cc2)cc1=O)NCCN1CCNC1=O` [Compound I-0121] was 100 to 1000 nM. The value for `CC(C)(CNC(=O)Cn1c(CCCC(F)(F)F)nc(-c2ccc(Cl)cc2)cc1=O)N1CCOCC1` [Compound I-0122] was 100 to 1000 nM.

For `N#CC1(NC(=O)Cn2c(CCCC(F)(F)F)nc(-c3ccc(Cl)cc3)cc2=O)CC1` [Compound I-0123], the IC50 lay in the range of 10 to 100 nM. To `O=C(Cn1c(CCCC(F)(F)F)nc(-c2ccc(Cl)cc2)cc1=O)NCC1(CO)CC1` [Compound I-0124] belongs 10 to 100 nM; to `C[C@@H]1COC[C@H](C)N1C(=O)Cn1c(CCCC(F)(F)F)nc(-c2ccc(Cl)cc2)cc1=O` [Compound I-0125], 10 to 100 nM.

Consider `CNC(=O)CNC(=O)Cn1c(CCCC(F)(F)F)nc(-c2ccc(Cl)cc2)cc1=O` [Compound I-0126], for which the IC50 lay within 100 to 1000 nM. To `CN(C)C(=O)CNC(=O)Cn1c(CCCC(F)(F)F)nc(-c2ccc(Cl)cc2)cc1=O` [Compound I-0127] belongs 100 to 1000 nM; to `CCNC(=O)N1CCC(NC(=O)Cn2c(CCCC(F)(F)F)nc(-c3ccc(Cl)cc3)cc2=O)CC1` [Compound I-0128], 10 to 100 nM. The value for `CNC(=O)CN1CCC(NC(=O)Cn2c(CCCC(F)(F)F)nc(-c3ccc(Cl)cc3)cc2=O)CC1` [Compound I-0129] was 100 to 1000 nM; that for `O=C(Cn1c(CCCC(F)(F)F)nc(-c2ccc(Cl)cc2)cc1=O)N1CCC(O)(CO)CC1` [Compound I-0130] was 10 to 100 nM. The value for `O=C(Cn1c(CCCC(F)(F)F)nc(-c2ccc(Cl)cc2)cc1=O)N1CCN(CCO)CC1` [Compound I-0131] was 10 to 100 nM; that for `CN(CC(O)CO)C(=O)Cn1c(CCCC(F)(F)F)nc(-c2ccc(Cl)cc2)cc1=O` (centres unmarked) [Compound I-0132] was 100 to 1000 nM. As for `NS(=O)(=O)CCNC(=O)Cn1c(CCCC(F)(F)F)nc(-c2ccc(Cl)cc2)cc1=O` [Compound I-0133], the IC50 was 10 to 100 nM. To `CC(C)(O)CNC(=O)Cn1c(CCCC(F)(F)F)nc(-c2ccc(Cl)cc2)cc1=O` [Compound I-0134] belongs below 10 nM; to `O=C(Cn1c(CCCC(F)(F)F)nc(-c2ccc(Cl)cc2)cc1=O)NC(CO)(CO)CO` [Compound I-0135], 10 to 100 nM; to `N#CCCN1CCN(C(=O)Cn2c(CCCC(F)(F)F)nc(-c3ccc(Cl)cc3)cc2=O)CC1` [Compound I-0136], 100 to 1000 nM. For `N#CCCNC(=O)Cn1c(CCCC(F)(F)F)nc(-c2ccc(Cl)cc2)cc1=O` [Compound I-0137], the IC50 lay within 10 to 100 nM. For `O=C(Cn1c(CCCC(F)(F)F)nc(-c2ccc(Cl)cc2)cc1=O)NCCCS(=O)(=O)O` [Compound I-0138], the IC50 is below 10 nM. The value for `O=C(Cn1c(CCCC(F)(F)F)nc(-c2ccc(Cl)cc2)cc1=O)N1CCOC(CO)C1` (centres unmarked) [Compound I-0139] was 10 to 100 nM; that for `O=C(Cn1c(CCCC(F)(F)F)nc(-c2ccc(Cl)cc2)cc1=O)NCCOCCOCCO` [Compound I-0140] was 100 to 1000 nM. The value for `Cc1noc(CNC(=O)Cn2c(CCCC(F)(F)F)nc(-c3ccc(Cl)cc3)cc2=O)n1` [Compound I-0141] was 10 to 100 nM; that for `O=C(Cn1c(CCCC(F)(F)F)nc(-c2ccc(Cl)cc2)cc1=O)NCc1ccnc(O)c1` [Compound I-0142] was 100 to 1000 nM. To `O=C(Cn1c(CCCC(F)(F)F)nc(-c2ccc(Cl)cc2)cc1=O)NC1CCS(=O)(=O)C1` (centres unmarked) [Compound I-0143] belongs 10 to 100 nM; to `CCC(CO)(CO)NC(=O)Cn1c(CCCC(F)(F)F)nc(-c2ccc(Cl)cc2)cc1=O` [Compound I-0144], 10 to 100 nM; to `CCNS(=O)(=O)CCNC(=O)Cn1c(CCCC(F)(F)F)nc(-c2ccc(Cl)cc2)cc1=O` [Compound I-0145], 10 to 100 nM. With `O=C(Cn1c(CCCC(F)(F)F)nc(-c2ccc(Cl)cc2)cc1=O)NCCN(CCO)CCO` [Compound I-0146], the IC50 was in the range of 100 to 1000 nM.

Consider `O=C(Cn1c(CCCC(F)(F)F)nc(-c2ccc(Cl)cc2)cc1=O)NCC1(CO)COC1` [Compound I-0147], for which the IC50 was 10 to 100 nM.

Consider `CC(C)(O)CN1CCN(C(=O)Cn2c(CCCC(F)(F)F)nc(-c3ccc(Cl)cc3)cc2=O)CC1` [Compound I-0148], for which the IC50 fell in the range of 100 to 1000 nM.

As for `O=C(Cn1c(=O)cc(-c2ccc(Cl)cc2)[nH]c1=O)NC(Cc1ccccc1)C(=O)O` (centres unmarked) [Compound I-0150], the half-inhibitory concentration (IC50) was at least 1000 nM. The value for `CCCCCn1c(-c2ccc(Cl)cc2)cc(=O)n(CC(=O)NC(Cc2ccccc2)C(=O)O)c1=O` (centres unmarked) [Compound I-0151] was 100 to 1000 nM; that for `CCCCCOc1nc(-c2ccc(Cl)cc2)cc(=O)n1CC(=O)NC(Cc1ccccc1)C(=O)O` (centres unmarked) [Compound I-0152] was 10 to 100 nM; that for `O=C(c1cccc(Cn2c(CCCC(F)(F)F)nc(-c3ccc(Cl)cc3)cc2=O)c1)N1CCSCC1` [Compound I-0153] was 10 to 100 nM.

For `O=C(NCCS(=O)(=O)O)c1cccc(Cn2c(CCCC(F)(F)F)nc(-c3ccc(Cl)cc3)cc2=O)c1` [Compound I-0154], the 50% inhibitory concentration (IC50) is 10 to 100 nM. The value for `CN(CC#N)C(=O)c1cccc(Cn2c(CCCC(F)(F)F)nc(-c3ccc(Cl)cc3)cc2=O)c1` [Compound I-0155] was 100 to 1000 nM; that for `CC(=O)NCCNC(=O)c1cccc(Cn2c(CCCC(F)(F)F)nc(-c3ccc(Cl)cc3)cc2=O)c1` [Compound I-0156] was 100 to 1000 nM. To `CN(CCC#N)C(=O)c1cccc(Cn2c(CCCC(F)(F)F)nc(-c3ccc(Cl)cc3)cc2=O)c1` [Compound I-0157] belongs 10 to 100 nM.
